{"source": "patent US5235039A", "about": "“Substrates for HIV protease” (Eli Lilly and Company, priority 1991, dated 1993)", "target": "T1, HIV-1 protease (HIV-1 M:B_HXB2R, UniProt P04585)", "T1 construct": "enzyme solution in MES-ALB buffer", "assay": "HIV-1 protease inhibitor assay (particle concentration fluorescence, Pandex)", "type": "biochemical", "conditions": "inhibitor at a concentration of about 7 μM; FIG. 1", "description": "The modified decapeptide is dissolved in a suitable buffer at a pH between about 5 and about 6 to form a solution at a desirable concentration, e.g. about 1.5 μg/ml. A separate solution of the protease in the same buffer is prepared at a sufficient concentration of protease to hydrolyze all substrate. To each well of a round-bottom, 96-well plate, e.g. a polystyrene microtiter plate, is added the enzyme solution followed by a buffered solution of the inhibitor compound. The solution of the inhibitor may be diluted in 20% aqueous dimethylsulfoxide when necessary for solubility. The plates are allowed to stand for about one hour at about room temperature before the substrate solution is added to each well. […] Unbound fluorescence is removed by filtration and subsequent washing with buffer. Any bound fluorescence is detected by excitation at 485 nm and reading the resulting epifluorescence at 535 nm. The amount of fluorescence indicates the extent to which the enzymatic reaction is inhibited.\nAs described hereinabove the Pandex Plates used in the assay method are 96-well two-chamber plates (upper and lower chambers) wherein the chambers are separated by a […] pore size membrane. […] Any fluorescent marked cleavage fragment (unbound fluorescence) in the wells is washed from the well and out of the plate. […]"}
{"substance": "Ac-Nal-Pro-Phe-Val-Sta-Leu-Phe-NH2", "values": [{"measurement": "percent inhibition of the protease", "value": 100, "unit": "%"}]}
